Key:
[1] = analgesic activity, assay not given (including inhibition by naloxone); format: in vivo
[2] = Modified Trypsin Hyperalgesic Assay (THA) in the rat; format: in vivo
Description: The analgesic agents were administered 30 minutes after the administration of trypsin. In addition, a modification of Vinegar's published assay was carried out, comprising the administration of the analgesic agent preceding subplantar injection of trypsin (0.10 ml of 10% solution of trypsin in pyrogen-free water) by 15 minutes. In both THA's, pain scores were determined 60 minutes after trypsin injection. The result of the modification was to increase the sensitivity of the THA to the mild analgesic action of the agents.
There were usually 6 rats at each dose level and at least 3 dose levels were used.

[3] = Yeast-Induced Hyperthermia Assay, antipyretic activity; format: in vivo; conditions: rat; for ED50: po; for antipyretic activity (in words): yeast-induced hyperthermia assay
Excerpt: The Yeast-Induced Hyperthermia Assay was used according to the procedure described by Khalili-Varasteh et al. in Arch. Int. Pharmacodyn.

[4] = Rat Hot Plate Assay; format: in vivo; conditions: for ED50: po, 1 h, read-out: Hot Plate Assay - Rat ED50; for Hot Plate Assay - Rat ED50, inactive: at 360 mg/kg
Excerpt: The rat hot plate assay incorporated 2 modifications of the mouse hot plate assay originally described by Eddy et al., J. Pharmacol. Exp. Ther. 98, 121-137 (1950). The first modification was enlargement of the diameter of the cylindrical (water filled) copper plate to 25.0 cm to accommodate rats instead of mice. The second modification was the use of a temperature controller to regulate a 250 watt infrared heat lamp which was activated via a thermistor probe attached to the undersurface of the top of the copper plate. The surface temperature was thus maintained at 45±1.0° C. (N=28 measurements of the plate temperature under experimental conditions). The time in which a rat placed on the hotplate responded by lifting, shaking or licking either of its hind or forelimbs was recorded in tenths of a second. Only animals responding in pretest within 6-13 seconds were used in the studies. Drugs were suspended in 0.5% sodium carboxymethylcellulose and administered orally, by gavage, in a volume of 1.00 ml/100 g.b. wt. 60 min prior to testing. […] The reaction time of 18.3 seconds represented the sum of the mean pretest times of 40 untreated rats plus the time of 3 standard deviations of the mean. ED50 's and their standard errors were estimated from a graph of the dose-response curves using the method of Miller and Tainter (Proc. Soc. Exp. Biol. Med. 57, 261-262 (1944). Following this procedure the analgesic activity of the compound (I) was compared to that of standard analgesic drugs (Table III).
*Duration of Action in Rat Hot Plate assay represents the time in hrs to
reduce 1.5 times the hot plate ED50 to 40% inhibition.

[5] = Carrageenin Pleurisy Assay (CPA), acute anti-inflammatory activity; format: in vivo, rat
Description: Following the procedure described by Vinegar et al. in Proc. Soc. Exp. Biol. Med. 151, 556, (1976), the acute anti-inflammatory activity of the compound (I) was compared with that of known anti-inflammatory drugs in the rat. The average 3 hour exudate volume for each drug-treated group was determined and the % inhibition relative to solvent-fed control animals calculated, the ED50 being the dose required to reduce the 3 hour exudate volume by 50%.

[6] = system: morphine receptor; experiment: binding to the morphine receptor
[7] = Acetic Acid Writhing Test (AAWT) in the rat; format: in vivo; conditions: po, read-out: ED50 (Acetic Acid Writhing Assay in the Rat)
Excerpt: Using the procedure described by Koster et al. in Fed. Proc. 18, 412 (1959) and Vinegar et al. in Handbook of Experimental Pharmcology, 50-2, ch.

[8] = po, 1 h, rat, p.o., 6.0 kg Force, agent given 15 minutes before trypsin, pain scores 60 minutes after trypsin, read-out: ED50, 6.0 kg Force (Modified Trypsin Hyperalgesic Assay)
[9] = rat, p.o., 60 min prior to testing, plate 45±1.0° C.

For `O=C1CCCN1c1ccc2c(c1)OCO2` [Compound I, 1-(1,3-benzodioxol-5-yl)-2-pyrrolidinone], the “analgesic activity (in words)” value ([1]; in vivo) was “mild to moderately strong analgesic activity”, the “inhibition of analgesic activity by naloxone (in words)” value ([1]; naloxone) was “analgesic activity is not inhibited by naloxone” and the ED50 [2, 8] was 24 ± 5.3 mg/kg. For the same molecule, the ED50 ([2]; po, 1 h, rat, p.o., 7.5 kg Force, agent given 15 minutes before trypsin, pain scores 60 minutes after trypsin, read-out: ED50, 7.5 kg Force (Modified Trypsin Hyperalgesic Assay)) was 23 ± 3.5 mg/kg, the “analgesic activity compared with known analgesics in the trypsin assay (in words)” value ([2]; trypsin assay, versus acetaminophen, aspirin, zomepirac, codeine, morphine) was “superior to acetaminophen and the prostaglandin synthetase inhibitors such as aspirin and zomepirac as shown in the trypsin assay but less active than the opiates such as codeine or morphine” and the ED50 [3] was 67 ± 4.2 mg/kg. For the same molecule, the “antipyretic activity (in words)” value [3] was “antipyretic activity”, the ED50 [4, 9] was 86 ± 16.5 mg/kg and the “Hot plate Duration of Action (time to reduce 1.5 times the hot plate ED50 to 40% inhibition)” value ([4]; rat, p.o., dose 120 mg/kg) was 5.0 h. The “duration of analgesic action (in words)” value ([4]; versus codeine or morphine, assay not given) was “significantly greater for compound (I) than for codeine or morphine”, the ED50 ([5]; po, 3 h, rat, p.o., relative to solvent-fed control animals, read-out: ED50, dose required to reduce the 3 hour exudate volume by 50% (CPA)) was 48 ± 10.5 mg/kg and the “acute anti-inflammatory activity (in words)” value ([5]; rat, carrageenan pleurisy assay) was “potent, long-lasting acute anti-inflammatory activity”. For the same molecule, the “acute anti-inflammatory action compared with acetaminophen (in words)” value ([5]; versus acetaminophen at comparable dose levels) was “more potent and to have a longer-lasting anti-inflammatory effect at comparable dose levels”, the “binding to the morphine receptor (in words)” value [6] was “does not bind to the morphine receptor” and the ED50 ([7]; rat, p.o.) was 36 ± 7.1 mg/kg.

With `COc1ccc2c3c1O[C@H]1[C@@H](O)C=C[C@H]4[C@@H](C2)N(C)CC[C@@]341` [Codeine] the ED50 [4, 9] was 57 ± 35.3 mg/kg and the “Hot plate Duration of Action (time to reduce 1.5 times the hot plate ED50 to 40% inhibition)” value ([4]; rat, p.o., dose 90 mg/kg) was 3.3 h.

For `CN1CC[C@]23c4c5ccc(O)c4O[C@H]2[C@@H](O)C=C[C@H]3[C@H]1C5` [Morphine], the ED50 ([4]; Rattus norvegicus) was 17 ± 3.6 mg/kg and the “Hot plate Duration of Action (time to reduce 1.5 times the hot plate ED50 to 40% inhibition)” value ([4]; rat, p.o., dose 30 mg/kg) was 2.5 h.

For `CC(=O)Oc1ccccc1C(=O)O` [Aspirin], the ED50 ([2]; Rattus norvegicus, po, read-out: ED50, 6.0 kg Force (Modified Trypsin Hyperalgesic Assay), inactive) was greater than 180 mg/kg, the ED50 [3] was 50 ± 8.1 mg/kg and the “antipyretic activity (in words)” value [3] was “combats fever in the rat”. For the same molecule, the “Hot Plate Assay - Rat ED50, inactive” value ([4]; rat, p.o.) was “Inactive” and the ED50 ([7]; Rattus norvegicus) was 21 ± 3.4 mg/kg.

In the case of `CC(=O)Nc1ccc(O)cc1` [Acetaminophen], the ED50 [2, 8] is reported as 95 ± 17.2 mg/kg, the ED50 at 200 mg/kg ([2]; po, rat, p.o., 7.5 kg Force, @ 200 mg/kg, read-out: ED50, 7.5 kg Force (Modified Trypsin Hyperalgesic Assay), inactive) is reported as greater than 200 mg/kg and the ED50 [3] is reported as 72 ± 8.6 mg/kg. For the same molecule, the “antipyretic activity (in words)” value [3] was “combats fever in the rat” and the “Hot Plate Assay - Rat ED50, inactive” value ([4]; rat, p.o.) was “Inactive”.

`COc1ccc2c3c1O[C@H]1[C@@H](O)C=C[C@H]4[C@@H](C2)N(C)CC[C@@]341` [Codeine Phosphate] showed an ED50 ([2]; Rattus norvegicus, po, 1 h, read-out: ED50, 6.0 kg Force (Modified Trypsin Hyperalgesic Assay)) of 10 ± 1.7 mg/kg, an ED50 ([2]; Rattus norvegicus, po, 1 h, read-out: ED50, 7.5 kg Force (Modified Trypsin Hyperalgesic Assay)) of 8.8 ± 2.77 mg/kg and an ED50 ([7]; Rattus norvegicus) of 30 ± 2.7 mg/kg.
